According to PubChem BioAssay AID1259407 (Chemical Carcinogenesis Research Information System (CCRIS), 2018):
Calls of active or inactive are those of the source. How the calls were made is not given here.

Tested on: CCRIS mutagenicity, Ames/micronucleus/aberration tests
Assay: CCRIS mutagenicity studies

c1cc(OCC2CO2)cc(OCC2CO2)c1 (stereo not drawn)
mutagenic call (End Point: IN VITRO CHROMOSOMAL ABERRATIONS, Test System: CHO CELLS, Metabolic Activation: NONE): active; positive | mutagenic call (End Point: IN VITRO CHROMOSOMAL ABERRATIONS, Test System: CHO CELLS, Metabolic Activation: RAT, LIVER, S-9, AROCLOR 1254): active; positive; weak response | mutagenic call (Test System: AMES SALMONELLA TYPHIMURIUM, Strain/Indicator: TA98, Metabolic Activation: HAMSTER, LIVER, S-9, AROCLOR 1254, Method: PREINCUBATION): inactive; negative | mutagenic call (Test System: AMES SALMONELLA TYPHIMURIUM, Strain/Indicator: TA98, Metabolic Activation: NONE, Method: PREINCUBATION): inactive; negative | mutagenic call (Test System: AMES SALMONELLA TYPHIMURIUM, Strain/Indicator: TA98, Metabolic Activation: RAT, LIVER, S-9, AROCLOR 1254, Method: PREINCUBATION): inactive; negative | mutagenic call (Test System: AMES SALMONELLA TYPHIMURIUM, Strain/Indicator: TA100, Metabolic Activation: HAMSTER, LIVER, S-9, AROCLOR 1254, Method: PREINCUBATION): active; positive | mutagenic call (Test System: AMES SALMONELLA TYPHIMURIUM, Strain/Indicator: TA100, Metabolic Activation: NONE, Method: PREINCUBATION): active; positive | mutagenic call (Test System: AMES SALMONELLA TYPHIMURIUM, Strain/Indicator: TA100, Metabolic Activation: RAT, LIVER, S-9, AROCLOR 1254 (10%), Method: PREINCUBATION): active; positive | mutagenic call (Test System: AMES SALMONELLA TYPHIMURIUM, Strain/Indicator: TA100, Metabolic Activation: RAT, LIVER, S-9, AROCLOR 1254, Method: PREINCUBATION): active; positive | mutagenic call (Test System: AMES SALMONELLA TYPHIMURIUM, Strain/Indicator: TA1535, Metabolic Activation: HAMSTER, LIVER, S-9, AROCLOR 1254 (10%), Method: PREINCUBATION): active; positive | mutagenic call (Test System: AMES SALMONELLA TYPHIMURIUM, Strain/Indicator: TA1535, Metabolic Activation: HAMSTER, LIVER, S-9, AROCLOR 1254, Method: PREINCUBATION): active; positive | mutagenic call (Test System: AMES SALMONELLA TYPHIMURIUM, Strain/Indicator: TA1535, Metabolic Activation: NONE, Method: PREINCUBATION): active; positive | mutagenic call (Test System: AMES SALMONELLA TYPHIMURIUM, Strain/Indicator: TA1535, Metabolic Activation: RAT, LIVER, S-9, AROCLOR 1254 (10%), Method: PREINCUBATION): active; positive | mutagenic call (Test System: AMES SALMONELLA TYPHIMURIUM, Strain/Indicator: TA1535, Metabolic Activation: RAT, LIVER, S-9, AROCLOR 1254, Method: PREINCUBATION): active; positive | mutagenic call (Test System: AMES SALMONELLA TYPHIMURIUM, Strain/Indicator: TA1537, Metabolic Activation: HAMSTER, LIVER, S-9, AROCLOR 1254, Method: PREINCUBATION): inactive; negative | mutagenic call (Test System: AMES SALMONELLA TYPHIMURIUM, Strain/Indicator: TA1537, Metabolic Activation: NONE, Method: PREINCUBATION): inactive; negative | mutagenic call (Test System: AMES SALMONELLA TYPHIMURIUM, Strain/Indicator: TA1537, Metabolic Activation: RAT, LIVER, S-9, AROCLOR 1254, Method: PREINCUBATION): inactive; negative | mutagenic call (Test System: MOUSE LYMPHOMA, Strain/Indicator: L5178Y (HPRT), Metabolic Activation: NONE, Method: SUSPENSION/PLATE): inactive; negative | mutagenic call (Test System: MOUSE LYMPHOMA, Strain/Indicator: L5178Y (TK+/TK-), Metabolic Activation: NONE, Method: SUSPENSION/PLATE): active; positive

Fc1cc2cccnc2c(F)c1F
mutagenic call (Test System: AMES SALMONELLA TYPHIMURIUM, Strain/Indicator: TA100, Metabolic Activation: RAT LIVER S-9, PHENOBARBITAL AND 5,6-BENZOFLAVONE, Method: PREINCUBATION): inactive; negative

Cc1nc2cc(C)c3c(nc(N)n3C)c2nc1C
mutagenic call (Test System: AMES SALMONELLA TYPHIMURIUM, Strain/Indicator: TA98, Metabolic Activation: RAT, LIVER, S-9, AROCLOR 1254, Method: STANDARD PLATE): active; positive

CC(C)[C@@](O)(C(=O)OCC1=CCN2CC[C@@H](O)[C@@H]12)[C@H](C)O
mutagenic call (Test System: AMES SALMONELLA TYPHIMURIUM, Strain/Indicator: TA100, Metabolic Activation: HAMSTER, LIVER, S-9, PCB, Method: PREINCUBATION): inactive; negative | mutagenic call (Test System: AMES SALMONELLA TYPHIMURIUM, Strain/Indicator: TA100, Metabolic Activation: RAT, LIVER, S-9, PCB, Method: PREINCUBATION): inactive; negative
